PMC6965684, “Characterization of binding, functional activity, and contractile responses of the selective 5‐HT1F receptor agonist lasmiditan” (British Journal of Pharmacology, 2019)
Where a name gives a salt, the structure may show the parent alone. Read-outs that look alike come from different tables or passages of the source.

How the values were obtained:
5-HT1B receptor [1] = biological target: T1, 5-HT1B receptor (Homo sapiens, UniProt P28222); assay: radioligand competition, CHO-K1 membranes; format: binding; conditions: read-out: 5-HT1B / pKi (converted)
T1 construct: gene HTR1B; full-length human recombinant receptor in CHO-K1 cells (Ogeda); crude membranes
T1 sequence (P28222 whole entry): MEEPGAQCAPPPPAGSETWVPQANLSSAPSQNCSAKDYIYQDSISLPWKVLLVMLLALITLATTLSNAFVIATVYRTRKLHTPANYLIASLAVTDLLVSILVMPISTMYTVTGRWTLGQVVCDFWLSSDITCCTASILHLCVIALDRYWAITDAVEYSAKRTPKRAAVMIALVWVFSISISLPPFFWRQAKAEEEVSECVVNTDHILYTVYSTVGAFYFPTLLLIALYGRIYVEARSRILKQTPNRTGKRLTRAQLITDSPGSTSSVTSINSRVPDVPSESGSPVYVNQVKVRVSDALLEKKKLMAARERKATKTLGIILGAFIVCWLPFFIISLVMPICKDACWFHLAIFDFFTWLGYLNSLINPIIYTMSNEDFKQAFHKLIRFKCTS
Excerpt: radioligand competition, CHO-K1 membranes on 5-HT1B receptor

5-HT1A receptor = biological target: T2, 5-HT1A receptor (Homo sapiens, UniProt P08908); assay: radioligand competition, CHO-K1 membranes; format: binding; conditions: read-out: 5-HT1A / pKi (converted)
T2 construct: gene HTR1A; full-length human recombinant receptor in CHO-K1 cells (Ogeda); crude membranes
T2 sequence (P08908 1-422): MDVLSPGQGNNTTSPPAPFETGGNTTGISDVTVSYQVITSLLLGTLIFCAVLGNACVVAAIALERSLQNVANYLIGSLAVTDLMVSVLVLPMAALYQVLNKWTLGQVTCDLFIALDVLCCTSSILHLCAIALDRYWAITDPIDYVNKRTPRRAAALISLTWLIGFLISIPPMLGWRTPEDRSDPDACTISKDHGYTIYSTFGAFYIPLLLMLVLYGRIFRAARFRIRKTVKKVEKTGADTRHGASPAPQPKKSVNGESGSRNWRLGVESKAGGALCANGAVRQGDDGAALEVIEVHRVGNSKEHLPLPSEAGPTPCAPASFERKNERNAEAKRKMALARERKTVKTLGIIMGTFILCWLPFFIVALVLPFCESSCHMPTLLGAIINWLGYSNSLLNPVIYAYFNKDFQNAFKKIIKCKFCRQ
Excerpt: radioligand competition, CHO-K1 membranes on 5-HT1A receptor

5-HT2B receptor [2] = biological target: T3, 5-HT2B receptor (Homo sapiens, UniProt P41595); assay: radioligand competition, CHO-K1 membranes; format: binding; conditions: for Ki: read-out: 5-HT2B / pKi (converted)
T3 construct: gene HTR2B; full-length human recombinant receptor in CHO-K1 cells (Ogeda); crude membranes
T3 sequence (P41595 whole entry): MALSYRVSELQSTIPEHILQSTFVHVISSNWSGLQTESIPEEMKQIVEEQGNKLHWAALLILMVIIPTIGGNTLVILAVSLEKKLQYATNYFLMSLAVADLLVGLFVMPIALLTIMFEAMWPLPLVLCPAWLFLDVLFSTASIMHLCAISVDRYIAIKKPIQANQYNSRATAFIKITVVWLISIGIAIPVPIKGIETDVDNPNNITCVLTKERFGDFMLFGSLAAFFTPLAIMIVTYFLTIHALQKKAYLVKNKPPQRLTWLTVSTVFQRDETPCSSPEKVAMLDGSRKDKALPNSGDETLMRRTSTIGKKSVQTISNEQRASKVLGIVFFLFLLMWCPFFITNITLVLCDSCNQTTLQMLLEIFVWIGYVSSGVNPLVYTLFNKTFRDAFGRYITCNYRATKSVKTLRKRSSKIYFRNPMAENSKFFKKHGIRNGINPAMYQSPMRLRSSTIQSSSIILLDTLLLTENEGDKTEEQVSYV
Excerpt: radioligand competition, CHO-K1 membranes on 5-HT2B receptor

5-HT2A receptor = biological target: T4, 5-HT2A receptor (Homo sapiens, UniProt P28223); assay: radioligand competition, CHO-K1 membranes; format: binding; conditions: read-out: 5-HT2A / pKi (converted)
T4 construct: gene HTR2A; full-length human recombinant receptor in CHO-K1 cells (Ogeda); crude membranes
T4 sequence (P28223 whole entry): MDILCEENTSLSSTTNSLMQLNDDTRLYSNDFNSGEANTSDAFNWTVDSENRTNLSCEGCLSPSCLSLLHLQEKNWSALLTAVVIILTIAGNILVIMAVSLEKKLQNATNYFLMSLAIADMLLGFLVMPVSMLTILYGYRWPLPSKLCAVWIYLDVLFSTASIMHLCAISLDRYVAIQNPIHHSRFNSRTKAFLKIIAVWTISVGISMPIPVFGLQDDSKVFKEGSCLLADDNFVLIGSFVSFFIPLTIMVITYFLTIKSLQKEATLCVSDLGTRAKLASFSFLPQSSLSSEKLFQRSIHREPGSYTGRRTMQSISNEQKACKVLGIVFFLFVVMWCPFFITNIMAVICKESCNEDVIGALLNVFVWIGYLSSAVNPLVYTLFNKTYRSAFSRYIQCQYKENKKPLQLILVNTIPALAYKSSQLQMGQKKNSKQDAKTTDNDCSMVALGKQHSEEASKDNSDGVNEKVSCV
Excerpt: radioligand competition, CHO-K1 membranes on 5-HT2A receptor

5-ht1E receptor [3] = biological target: T5, 5-ht1E receptor (Homo sapiens, UniProt P28566); assay: radioligand competition, CHO-K1 membranes; format: binding; conditions: read-out: 5-ht1E / pKi (converted)
T5 construct: gene HTR1E; full-length human recombinant receptor in CHO-K1 cells (Ogeda); crude membranes
T5 sequence (P28566 whole entry): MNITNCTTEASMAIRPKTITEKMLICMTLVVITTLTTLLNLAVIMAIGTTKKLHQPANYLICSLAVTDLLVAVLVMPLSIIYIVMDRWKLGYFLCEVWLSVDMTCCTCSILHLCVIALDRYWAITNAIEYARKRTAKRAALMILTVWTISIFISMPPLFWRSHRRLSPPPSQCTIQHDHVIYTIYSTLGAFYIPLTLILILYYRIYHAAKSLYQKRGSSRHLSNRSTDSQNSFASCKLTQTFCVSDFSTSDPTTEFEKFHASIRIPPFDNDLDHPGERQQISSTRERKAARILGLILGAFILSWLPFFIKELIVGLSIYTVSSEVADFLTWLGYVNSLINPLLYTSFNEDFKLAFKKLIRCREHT
Excerpt: radioligand competition, CHO-K1 membranes on 5-ht1E receptor

5-HT1B receptor [4] = biological target: T1, 5-HT1B receptor; assay: biochemical; format: CHO-K1 membranes; set-up: GTPγS agonist functional assay
Excerpt: (§1) Additionally, the reference values obtained were compared to historical values obtained from the same receptor and used to validate the experimental session. […] For the new assays developed in this study (i.e., 5‐ht1E receptor), the two independent pIC50 determined must be concordant with a 1 log unit interval for the assays to be validated.

5-ht1E receptor [5] = biological target: T5, 5-ht1E receptor; assay: biochemical; format: CHO-K1 membranes; set-up: GTPγS agonist functional assay; conditions: GTPγS
Excerpt: as §1

5-HT1F receptor = biological target: T6, 5-HT1F receptor (Homo sapiens, UniProt P30939); assay: biochemical; format: CHO-K1 membranes; set-up: GTPγS agonist functional assay; conditions: GTPγS
T6 construct: gene HTR1F; full-length human recombinant receptor in CHO-K1 cells (Ogeda)
T6 sequence (P30939 1-366): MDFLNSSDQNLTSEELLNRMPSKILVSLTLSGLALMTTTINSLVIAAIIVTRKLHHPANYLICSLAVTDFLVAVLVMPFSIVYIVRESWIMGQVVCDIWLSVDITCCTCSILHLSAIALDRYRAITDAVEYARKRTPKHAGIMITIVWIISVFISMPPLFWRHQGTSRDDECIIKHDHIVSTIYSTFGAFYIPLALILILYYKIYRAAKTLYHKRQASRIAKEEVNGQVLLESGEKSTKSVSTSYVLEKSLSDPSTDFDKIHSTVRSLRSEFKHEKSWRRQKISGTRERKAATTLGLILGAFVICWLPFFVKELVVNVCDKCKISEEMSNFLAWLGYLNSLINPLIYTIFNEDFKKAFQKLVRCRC
Excerpt: as §1

5-HT1D receptor [6] = biological target: T7, 5-HT1D receptor (Homo sapiens, UniProt P28221); assay: biochemical; format: CHO-K1 membranes; set-up: GTPγS agonist functional assay
T7 construct: gene HTR1D; full-length human recombinant receptor in CHO-K1 cells (Ogeda); crude membranes
T7 sequence (P28221 whole entry): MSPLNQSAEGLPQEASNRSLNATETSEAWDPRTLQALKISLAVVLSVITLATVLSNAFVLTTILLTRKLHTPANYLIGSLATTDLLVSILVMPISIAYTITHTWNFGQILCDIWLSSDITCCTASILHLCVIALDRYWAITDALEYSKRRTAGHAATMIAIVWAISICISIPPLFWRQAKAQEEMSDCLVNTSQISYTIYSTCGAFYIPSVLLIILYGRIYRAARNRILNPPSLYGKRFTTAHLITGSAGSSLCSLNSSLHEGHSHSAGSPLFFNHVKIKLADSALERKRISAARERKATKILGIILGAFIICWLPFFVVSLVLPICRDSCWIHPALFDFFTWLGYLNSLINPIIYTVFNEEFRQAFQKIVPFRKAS
Excerpt: as §1

5-HT2B receptor [7] = biological target: T3, 5-HT2B receptor; assay: cell-based; set-up: species or system CHO-K1; IPOne HTRF agonist assay, IP1 accumulation in adherent transfected cells
Experimental: The assay was performed on adherent cells. For agonist testing, the medium was removed and 20 μl of assay buffer plus 20 μl of the studied agonist or the reference agonist were added in each well. The plate was incubated for 60 min at 37°C with 5% CO2. IP1‐D2 reagent and anti‐IP1 cryptate reagents were dispensed in the wells, and IP1 concentrations were then measured following the manufacturer instructions (IPOne HTRF assay kit; Cisbio International, Codolet, France). In brief, increasing concentrations of agonists were added to stably transfected cells in buffer in an Optiplate (PerkinElmer Life Sciences). The plates were incubated, and cells were then lysed by the addition of HTRF reagents (IP1‐D2 reagent and anti‐IP1 cryptate reagents) and diluted in lysis buffer, followed by incubation at room temperature. […] Additionally, the reference values obtained were compared to historical values obtained from the same receptor and used to validate the experimental session. […] For the new assays developed in this study (i.e., 5‐ht1E receptor), the two independent pIC50 determined must be concordant with a 1 log unit interval for the assays to be validated.

5-HT1D receptor [8] = biological target: T7, 5-HT1D receptor; assay: radioligand competition, CHO-K1 membranes; format: binding; conditions: read-out: 5-HT1D / pKi (converted)
Excerpt: radioligand competition, CHO-K1 membranes on 5-HT1D receptor

[9] = GTPγS, read-out: 5‐HT1B / GTPγS (converted)
[10] = GTPγS, read-out: 5‐HT1D / GTPγS (converted)
[11] = IP, read-out: 5‐HT2B / IP (converted)

Compound `CNS(=O)(=O)Cc1ccc2[nH]cc(CCCN3CCN(c4ncncc4OC)CC3)c2c1` [Avitriptan fumarate] has a Ki (5-HT1B receptor [1]) of 1.58 nM, a Ki (5-HT1A receptor) of 19.5 nM and a Ki (5-HT2B receptor [2]) of 1150 nM. It also gave a Ki (5-HT2A receptor) of 2340 nM, a Ki (5-ht1E receptor [3]) of 3550 nM and an EC50 (5-HT1B receptor [4]; [9]) of 2.09 nM. The EC50 (5-ht1E receptor [5]) was over 10000 nM, the EC50 (5-HT1F receptor) was 891 nM and the EC50 (5-HT1D receptor [6]; [10]) was 0.537 nM. The EC50 (5-HT2B receptor [7]; [11]) was 389 nM and the Ki (5-HT1D receptor [8]) was 0.776 nM.

Work on `CN1CCC[C@@H]1Cc1c[nH]c2ccc(CCS(=O)(=O)c3ccccc3)cc12` [Eletriptan hydrobromide] yielded a Ki (5-HT1B receptor [1]) of 0.525 nM, a Ki (5-HT1A receptor) of 1.95 nM and a Ki (5-HT2B receptor [2]) of 447 nM. For the same compound, the Ki (5-HT2A receptor) was 1150 nM, the Ki (5-ht1E receptor [3]) was 61.7 nM and the EC50 (5-HT1B receptor [4]; [9]) was 8.13 nM. It also gave an EC50 (5-ht1E receptor [5]) of 126 nM, an EC50 (5-HT1F receptor) of 132 nM and an EC50 (5-HT1D receptor [6]; [10]) of 0.912 nM. It also gave an EC50 (5-HT2B receptor [7]; [11]) of 155 nM and a Ki (5-HT1D receptor [8]) of 0.102 nM.

`CNC1CCc2[nH]c3ccc(C(N)=O)cc3c2C1` (racemic) [Frovatriptan racemate] gave an EC50 (5-ht1E receptor [5]) of over 10000 nM and an EC50 (5-HT1F receptor) of 447 nM.

`N#Cc1ccc(N2CCN(C(=O)COc3ccc4[nH]cc(CCN)c4c3)CC2)cc1` [Donitriptan hydrochloride] showed a Ki (5-HT1B receptor [1]) of 0.17 nM, a Ki (5-HT1A receptor) of 11.7 nM and a Ki (5-HT2B receptor [2]) of 813 nM. It also gave a Ki (5-HT2A receptor) of 447 nM, a Ki (5-ht1E receptor [3]) of 1700 nM and an EC50 (5-HT1B receptor [4]) of 0.302 nM. The EC50 (5-ht1E receptor [5]) was over 10000 nM, the EC50 (5-HT1D receptor [6]) was 0.309 nM and the EC50 (5-HT2B receptor [7]) was 24.5 nM. It also gave a Ki (5-HT1D receptor [8]) of 0.138 nM.

For `CNS(=O)(=O)CCc1ccc2[nH]cc(C3CCN(C)CC3)c2c1` [Naratriptan hydrochloride], the Ki (5-HT1B receptor [1]) was 0.603 nM, the Ki (5-HT1A receptor) was 15.1 nM and the “5-HT2B / pKi” value (5-HT2B receptor [2]; radioligand listed in supplement Table S1, unreliable (pIC50 printed as <[…])) was 5.08 -log M. It also gave a Ki (5-ht1E receptor [3]) of 7.41 nM, an EC50 (5-HT1B receptor [4]; [9]) of 1.38 nM and an EC50 (5-ht1E receptor [5]) of 6.76 nM. The EC50 (5-HT1F receptor) was 8.91 nM, the EC50 (5-HT2B receptor [7]; [11]) was over 10000 nM and the Ki (5-HT1D receptor [8]) was 0.501 nM.

`CN(C)[C@@H]1CCc2[nH]c3ccc(NC(=O)c4ccc(F)cc4)cc3c2C1` [LY344864 hydrochloride] gave an EC50 (5-HT1F receptor) of 14.1 nM, an EC50 (5-HT1D receptor [6]; [10]) of 117 nM and an EC50 (5-HT2B receptor [7]; [11]) of over 10000 nM.
